The source of these data is patent US5451584A, “N-alkynyl carboxamides as sertonergic agents” (American Home Products Corporation, priority 1994, dated 1995).

Assay [1] addresses T1, 5-HT1A serotonin receptor (Rattus norvegicus, UniProt P19327).
T1 construct: from tissue; inferred from the cited Hall et al. 1985 procedure
T1 sequence (P19327 1-422): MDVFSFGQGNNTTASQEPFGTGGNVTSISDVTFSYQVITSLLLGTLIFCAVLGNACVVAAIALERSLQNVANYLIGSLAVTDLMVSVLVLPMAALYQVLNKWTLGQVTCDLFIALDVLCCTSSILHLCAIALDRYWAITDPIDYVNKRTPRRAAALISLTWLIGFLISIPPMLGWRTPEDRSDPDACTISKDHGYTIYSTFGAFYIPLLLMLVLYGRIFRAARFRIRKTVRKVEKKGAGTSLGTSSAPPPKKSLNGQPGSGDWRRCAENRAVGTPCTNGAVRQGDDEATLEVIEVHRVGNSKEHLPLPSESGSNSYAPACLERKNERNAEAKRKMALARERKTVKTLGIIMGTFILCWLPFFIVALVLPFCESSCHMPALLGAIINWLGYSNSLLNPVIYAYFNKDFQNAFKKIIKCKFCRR
Briefly: displacement of [^3 H] 8-OHDPAT (dipropylaminotetralin) from the 5-HT1A serotonin receptor. The note with it: procedure of Hall et al., read-out: 5-HT1A Binding (IC50). As for the experimental part: The compounds of this invention are prepared by conventional methods. For example, the appropriately substituted "acid" is transformed in the presence of a coupling agent like N,N-bis(2-oxo-3-oxazolidinyl)phosphoramidic chloride to yield the desired products ( 1 ). [drawing 3] High affinity for the serotonin 5-HT1A receptor was established by testing the claimed compound's ability to displace [^3 H] 8-OHDPAT (dipropylaminotetralin) from the 5-HT1A serotonin receptor following the procedure of Hall et al., J. Neurochem. 44, 1685 (1985). […] The anxiolytic activity of buspirone is believed to be, at least partially, due to its 5-HT1A receptor affinity (Vander Maclen et al., Eur. J. Pharmacol. 1986, 129 (1-2) […]).

For assay [2], the target named is T1, 5-HT1A serotonin receptor. The note with it: buspirone, standard for anxiolytic activity; cited from earlier work.

For `C#CCN(C)C(=O)C(CCN1CCN(c2ccccc2OC)CC1)c1ccccc1` (stereo not drawn) [Example 2, 4-[4-(2-Methoxy-phenyl)-piperazin-1-yl]-N-methyl-2-phenyl-N-prop-2-ynyl-butyramide], the IC50 in assay [1] turned out to be 19.4 nM.
Still for that read-out and setting: the result for `C#CCNC(=O)C(CCN1CCN(c2ccccc2OC)CC1)c1ccccc1` (stereo not drawn) [Example 1, 4-[4-(2-Methoxy-phenyl)-piperazin-1]-2-phenyl-N-prop-2-ynyl-butyramide] reads 44.9 nM.
On to `O=C1CC2(CCCC2)CC(=O)N1CCCCN1CCN(c2ncccn2)CC1` [buspirone], for which, in assay [2], the “affinity for the 5-HT1A serotonin receptor subtype (in words)” value is “potent affinity”.

In general, IC50 refers to the point on the concentration scale where inhibition reaches its midpoint.
